The source of these data is EPA's ToxValDB 9.5 (doi:10.2903/j.efsa.2012.2496).

Structures are written as SMILES.

One data set relates to Oryctolagus sp. Conditions: developmental; development.
A further data set relates to Canidae. Conditions: oral, Dog Other, organ weight.
In the next data set the test system is Mus musculus. Conditions: subchronic; duration: 90 days; oral; organ weight.

Regarding `C=CCSC(=O)n1c(N)c(-c2ccccc2C)c(=O)n1C(C)C` [Fenpyrazamine], the NOAEL (usually the highest dose or exposure tested at which no adverse effect was seen) is 30 mg/kg-day in the data set on Oryctolagus sp.; 25 mg/kg-day in the data set on Canidae (chronic, duration: 1 years); 25 mg/kg-day in the data set with Canidae (subchronic, duration: 90 days); 28 mg/kg-day with Mus musculus; 12.7 mg/kg-day with Rattus norvegicus (chronic, duration: 2 years, M, histopathology: nonneoplastic); 20.3 mg/kg-day in the data set on Rattus norvegicus (reproduction developmental, F, organ weight). The same molecule displayed an NOAEL in the data set on Rattus norvegicus (reproduction developmental, M, organ weight) of 20 mg/kg-day. Moreover, the LC50 in the data set with Colinus virginianus (acute, oral, diet, mortality) is above 954 mg/kg-day. For the same molecule, the LD50 in the data set on Colinus virginianus (acute, oral, mortality) was above 2000 mg/kg-day; in the data set on Rattus norvegicus (acute, oral, mortality) it was above 2000 mg/kg-day. The molecule also displayed an NOEC with Colinus virginianus (reproduction developmental) of 82.9 mg/kg-day. Moreover, the NOEL in the data set with Rattus norvegicus (reproduction developmental, body weight) is 28.5 mg/kg-day.
